{
  "source": "patent US10136641B2",
  "about": "“Methods for increasing tolerance to abiotic stress in plants” (Crop Microclimate Management Inc., priority 2010, dated 2018)",
  "assay_type_in_all_cases": "in vivo",
  "key": {"citrus": {"tested_on": "citrus", "test": "Citrus field trial (heat, light and/or water stress), Cobram, Victoria", "procedure": "(§1) Field trials were carried out in parts of commercial orchards or fields in Australia during the 2009-2010 season. Crops were evaluated for specific parameters impacted by abiotic stress including fruit diameter, fruit number, amount of sunburn damage and number of flowers aborted. The crops evaluated were apple, citrus, tomato and wine grape. […] Heat and light stress occurred early during the trials, with exposures to 40° C.^+ temperatures in November; about 4-6 weeks after the trials were initiated. This period of stress was followed by varied temperatures including temperatures that were in the mid-to-high 30° C. range.\n(§2) The foliage and fruit for each crop were assessed prior to treatment and then at regular intervals through the season for any signs of phytotoxicity. No phytotoxicity was observed on either the foliage or the fruit for any of the applied formulations for any of the crops. In addition, all trials were determined to be disease and pest free.\n(§3) Screen (kaolin), Screen Duo (kaolin and salicylate), Surround (kaolin) and Parasol (calcium carbonate) are standard treatments used in the management of heat, light and water stress. Kaolin and calcium carbonate reduce stress by reflecting UV, visible, and infrared radiation, thereby reducing the impact of excess heat and light on photosynthesis and other cellular processes.\n(§4) The citrus and apple trials received four and five applications, respectively, of the various formulations, set forth in Table 1 (below), prior to experiencing abiotic stress. Tomatoes received biweekly applications of the treatments throughout the trial.\nIn general, a lower fruit load results in greater fruit diameter at harvest. Early season differences in fruit diameter are due to variation in cell division. It is well documented that at equal fruit load, heat stress will result in smaller fruit (i.e., reduced fruit diameter). In addition, heat, light, and/or water stress can also result in fruit number losses, commonly known in citrus as “June drop.” Past studies indicate that protecting the crop with Screen/Duo starting at petal fall can result in larger fruit and higher numbers of fruit, most likely by reducing the crop temperature and reducing stress signaling reactive oxygen (ROX).\nThe trial described below was conducted in Cobram, Victoria, Australia. Several parameters were measured as responses to heat, light and/or water stress: early citrus fruit diameter, number of fruit per cubic meter foliage, percent sunburn, later season fruit diameter and kilograms of fruit per cubic meter foliage. Sunburn damage is the late stage result of combined heat and light stress. […] There was little correlation observed between fruit number and fruit size (correlation […])."}, "apple": {"tested_on": "apple", "test": "Apple field trial (heat, light and/or water stress), Shepparton, Victoria", "procedure": "as §1, §2, §3, §4\nAs described above for citrus, early season heat, light and/or water stress can also impede cell division that occurs during Phase I of fruit development of apples. In the apple trial, which was conducted in Shepparton, Victoria, Australia, the load of fruit on each of the trees was thinned to an approximately equal value (approximately 200 fruit per tree; +/−5%), thus eliminating the confounding effect of fruit load on fruit diameter. To assess sunburn/heat stress damage, all apples were harvested from the center tree in each plot and rated according to the following rating system.\nRating Visual Assessment of the Fruit\n1 Slight yellowing on the exposed side (<5% of the fruit area)\n2 Noticeable yellowing on the exposed side (>5% of the fruit area)\n3 Moderate sunburn with pronounced lenticels (fruit unmarketable)\n4 Significant sunburn (fruit unmarketable)"}, "tomato": {"tested_on": "tomato", "test": "Tomato field trial (flower abortion, sunburn, yield), Echuca, Victoria", "procedure": "as §1\nThe foliage and fruit for each crop were assessed prior to treatment and then at regular intervals through the season for any signs of phytotoxicity.\nKaolin and calcium carbonate reduce stress by reflecting UV, visible, and infrared radiation, thereby reducing the impact of excess heat and light on photosynthesis and other cellular processes.\nas §4\nFlower abortion in tomato results in significant yield losses in tomato and begins at temperatures of 28 C, becoming more severe as temperatures rise. Further, once fruit has developed, it is susceptible to damage from heat and light, expressed as sunburn.\nIn the present study, tomatoes, located in a commercial field outside Echuca, Victoria, Australia, were treated with azeleic acid (CMM2009A). The number of aborted flowers per plot was assessed periodically during the season. Tomato yield and sunburn damage was assessed as follows. Tomatoes from the center of each plot were harvested from a one meter section of the tomato beds. The fruit was visually assessed as being either red in color and suitable for processing, green in color, or sun burnt. The fruit from these three categories were kept separate, weighed and recorded."}, "Tomato plants": {"tested_on": "Tomato plants", "test": "Tomato pot trial, heat and light stress in the greenhouse", "conditions": "for Avg. growth in cm. (tomato fruits exposed to heat and light stress): April 2-May 10; for Avg growth in cm. (tomato fruits exposed to heat and light stress): April 2-May 18", "procedure": "Tomato plants were exposed to heat and light stress in the greenhouse. Control plants had no treatment or were treated with Screen, Screen Plus1, Screen Plus2, or Screen Plus3, The experimental plants were treated with azelaic acid at 10^−4 M or 10^−3 M applied alone or in combination with Screen, Screen Plus1, Screen Plus2, or Screen Plus3."}, "wine grape": {"tested_on": "wine grape", "test": "Wine grape field trial (sunburn/heat stress, yield), Kialla, Victoria", "procedure": "as §1, §2, §3\nThe trial described below was conducted in Kialla, Victoria, Australia. The trial design was a randomized complete block with four replicates. Each plot comprises one panel of vines having four vines. For yield measurements the grapes were harvested from each of the two center vines in each panel and bunch numbers and weights were recorded. For assessment of sunburn/heat stress damage, the bunches of grapes were rated according to the following system: […]"}, "tomatoes": {"tested_on": "tomatoes", "test": "Tomato pot study with sebacic acid (high heat, light and water stress)", "procedure": "A tomato pot study was conducted with sebacic acid to determine the activity of sebacic acid in increasing tolerance to abiotic stress. The tomatoes were grown in a standard medium in pots and subjected to the abiotic stresses of high heat, light, and water stress. Growth of the plants was used as a measure of the ability of the sebacic acid to reduce the impact of abiotic stress. Growth measurements were taken 32 days after treatment with sebacic acid"}, "[1]": {"conditions": "citrus, versus standard treatments"}, "[2]": {"conditions": "apple field trial, rates per Table 3"}, "[3]": {"conditions": "azelaic at 10^−4M where applied, Screen applications at rate equivalent of 25 kg/ha"}, "[4]": {"conditions": "wine grape field trial, 10 Mar. 2010, four applications"}},
  "data": [
    {"compound": "O=C(O)CCCCCCCC(=O)O", "note": "[Azeleic acid, azelaic acid (nonanedioic acid)]", "values": [
      {"measurement": "Fruit Number per cubic meter", "setting": "citrus; citrus field trial, 6 Jan. 2010, per cubic meter foliage, four applications, rates per Table 2", "result": 10.62, "unit": "per cubic meter"},
      {"measurement": "Fruit Diameter (mm)", "setting": "citrus; citrus field trial, 12 Apr. 2010 (later season), four applications, rates per Table 2", "result": 71.59, "unit": "mm"},
      {"measurement": "Fruit Diameter (mm)", "setting": "citrus; citrus field trial, 14 Dec. 2010 (early fruit diameter), four applications, rates per Rate column of Table 2", "result": 29.49, "unit": "mm"},
      {"measurement": "Percent Sunburn", "setting": "citrus; citrus field trial, 28 Jan. 2010, four applications, rates per Table 2", "result": 5.6, "unit": "%"},
      {"measurement": "kgs/cubic meter of foliage", "setting": "citrus; citrus field trial, 29 Sep. 2010, kilograms of fruit, four applications, rates per Table 2", "result": "3.8 kgs/cubic meter of foliage"},
      {"measurement": "Protecting cell division, as measured by early fruit diameter (in words)", "setting": "citrus; citrus, azelaic acid alone versus Screen, Screen Duo, Surround and Parasol", "result": "as effective as the standard treatments"},
      {"measurement": "Protection from sunburn damage (in words)", "setting": "citrus; [1]", "result": "equal to that obtained using the standard treatments"},
      {"measurement": "Reducing fruit loss (in words)", "setting": "citrus; [1]", "result": "as effective in reducing fruit loss"},
      {"measurement": "Fruit Diameter (mm)", "setting": "apple; apple field trial, 12 Dec. 2010, fruit load thinned to approx. 200 fruit per tree, rates per Table 3", "result": 39.84, "unit": "mm"},
      {"measurement": "% Fruit Sunburn 1&2", "setting": "apple; apple field trial, 16 Feb. 2010, 1&2 are export grade or commercially acceptable grade apples, rates per Table 3", "result": 87.4, "unit": "%"},
      {"measurement": "Yield kg/tree", "setting": "apple; apple field trial, 17 Mar. 2010, rates per Table 3", "result": 42.8, "unit": "kg/tree"},
      {"measurement": "Apple Size g/apple", "setting": "apple; [2]", "result": 152, "unit": "g/apple"},
      {"measurement": "Marketable Yield kg/tree", "setting": "apple; [2]", "result": 37.4, "unit": "kg/tree"},
      {"measurement": "Protecting cell division as measured by fruit diameter, percent sunburn, apple size, yield and marketable yield (in words)", "setting": "apple; apple, alone or in combination with kaolin, salicylate, glycine betaine, or multiples thereof", "result": "as effective as the standard treatments"},
      {"measurement": "Yield Red MT/ha", "setting": "tomato; 12 Mar. 2010, red fruit suitable for processing, ten applications", "result": 131, "unit": "MT/ha"},
      {"measurement": "Yield Sunburn MT/ha", "setting": "tomato; 12 Mar. 2010, sun burnt fruit, ten applications", "result": 6.6, "unit": "MT/ha"},
      {"measurement": "Soluble Solids MT/ha", "setting": "tomato; 12 Mar. 2010, ten applications", "result": 6.2, "unit": "MT/ha"},
      {"measurement": "Total Yield MT/ha", "setting": "tomato; 12 Mar. 2010, ten applications", "result": 137.6, "unit": "MT/ha"},
      {"measurement": "Number Sunburn Fruit per plot", "setting": "tomato; 20 Feb. 2010, ten applications, rates per Table 4", "result": 21.3, "unit": "per plot"},
      {"measurement": "Aborted Flowers per sq m of the plot", "setting": "tomato; 20 Jan. 2010, ten applications, rates per Table 4", "result": "5 per sq m of the plot"},
      {"measurement": "Protection from sunburn damage (in words)", "setting": "tomato; alone or in combination with salicylate, kaolin, glycine betaine", "result": "equivalent to or better than the standard treatments"},
      {"measurement": "Number of flowers aborted (in words)", "setting": "tomato; versus standard treatments", "result": "reduce the number of flowers aborted to the same degree as the standard treatments"},
      {"measurement": "Avg. growth in cm. (tomato fruits exposed to heat and light stress)", "setting": "Tomato plants; azelaic at 10^−3M, no Screen", "result": 8.0, "unit": "cm"},
      {"measurement": "Avg. growth in cm. (tomato fruits exposed to heat and light stress)", "setting": "Tomato plants; [3]", "result": 11.0, "unit": "cm"},
      {"measurement": "Avg growth in cm. (tomato fruits exposed to heat and light stress)", "setting": "Tomato plants; azelaic at 10^−3M, no Screen", "result": 6.1, "unit": "cm"},
      {"measurement": "Avg growth in cm. (tomato fruits exposed to heat and light stress)", "setting": "Tomato plants; [3]", "result": 8.7, "unit": "cm"},
      {"measurement": "Protection from the abiotic stress as measured by average fruit size (in words)", "setting": "Tomato plants; tomato pot trial, azelaic acid at 10^−4 M", "result": "equivalent to or better than the standard treatments"},
      {"measurement": "Bunch Weight (grams)", "setting": "wine grape; wine grape field trial, 10 Mar. 2010, average weight of a bunch, four applications", "result": 94.7, "unit": "grams"},
      {"measurement": "Yield kg/ha", "setting": "wine grape; [4]", "result": 9230, "unit": "kg/ha"},
      {"measurement": "Yield kg/vine", "setting": "wine grape; [4]", "result": 3.6, "unit": "kg/vine"},
      {"measurement": "% Bunches Rating 1 + 2", "setting": "wine grape; wine grape field trial, 10 Mar. 2010, rating 1 = 0%, 2 = 1-5% incidence of sunburn/heat stress on bunches, four applications, rates per Table 6", "result": 96.8, "unit": "%"},
      {"measurement": "Protection from heat, water and light stress (bunch rating, yield, bunch weight; in words)", "setting": "wine grape; wine grape, alone or in combination with salicylate, kaolin, or combinations thereof", "result": "equivalent to or better than the standard treatments"}
    ]},
    {"compound": "sebacic acid (decanedioic acid)", "values": [
      {"measurement": "Growth (mm)", "setting": "tomatoes; tomato plants in pots, 1 × 10−4M, 32 days after treatment, high heat, light and water stress", "result": 25.3, "unit": "mm"},
      {"measurement": "Growth compared with the untreated plants (in words)", "setting": "tomatoes; tomato pot trial, Table 7", "result": "statistically significant greater growth"}
    ]}
  ]
}
